“Also recorded” adds a separate entry of the source.
Columns and labels:
[1] = tested on: cholesterol oxidase derived from ST-200 strain; assay: Effect of metal ions and the like on enzyme activity; format: biochemical, Pseudomonas sp. ST-200; settings: for Relative activity (%): pH 7; for Inhibition of enzyme activity (in words): 1 mM
[2] = tested on: cholesterol oxidase derived from Pseudomonas sp.; assay: Effect of organic solvents on enzyme activity (Pseudomonas sp.); format: biochemical; settings: organic solvent 50% by volume of reaction solution; pH 7, 30° C.; no solvent = 1
[3] = tested on: cholesterol oxidase derived from ST-200 strain; assay: Effect of organic solvents on enzyme activity (ST-200); format: biochemical, Pseudomonas sp. ST-200; settings: for Relative activity, ST-200: organic solvent 50% by volume of reaction solution, pH 7, 30° C., no solvent = 1; for Reaction velocity in solvent compared to cholesterol oxidases of Nocardia erythropolis, Pseudomonas sp., Streptomyces sp., Brevibacterium sp. (in words): organic solvent 50% by volume, 30° C., pH 7
[4] = tested on: cholesterol oxidase derived from Streptomyces sp.; assay: Effect of organic solvents on enzyme activity (Streptomyces sp.); format: biochemical; settings: organic solvent 50% by volume of reaction solution; pH 7, 30° C.; no solvent = 1
[5] = tested on: cholesterol oxidase derived from Brevibacterium sp.; assay: Effect of organic solvents on enzyme activity (Brevibacterium sp.); format: biochemical; settings: organic solvent 50% by volume of reaction solution; pH 7, 30° C.; no solvent = 1
[6] = tested on: cholesterol oxidase derived from Nocardia erythropolis; assay: Effect of organic solvents on enzyme activity (Nocardia erythropolis); format: biochemical; settings: organic solvent 50% by volume of reaction solution; pH 7, 30° C.; no solvent = 1
[7] = tested on: cholesterol oxidase derived from ST-200 strain; assay: Substrate specificity of enzyme; format: biochemical, Pseudomonas sp. ST-200; settings: for Relative activity (%): various substrates, 30° C., pH 7, enzyme activity with cholesterol set to be 100
[8] = tested on: cholesterol oxidase derived from Pseudomonas sp. ST-200 (FERM BP-6661); assay: Enzyme kinetics (Km, Vmax) of cholesterol oxidation, Lineweaver-Burk; format: biochemical; settings: 30° C., pH 7, 0 to 1 mM cholesterol
Protocol: (§1) Enzyme activity was measured as described in Test Example 1 at 30° C. at pH 7.

[9] = tested on: cholesterol oxidase derived from Streptomyces sp.; assay: as above; format: biochemical; settings: 30° C., pH 7
Protocol: as §1

[10] = tested on: cholesterol oxidase derived from Brevibacterium sp.; assay: as above; format: biochemical; settings: 30° C., pH 7
Protocol: as §1

[11] = tested on: cholesterol oxidase derived from Nocardia erythropolis; assay: as above; format: biochemical; settings: 30° C., pH 7
Protocol: as §1

[12] = tested on: cholesterol oxidase derived from Pseudomonas sp. (comparison); assay: as above; format: biochemical; settings: 30° C., pH 7
Protocol: as §1

[13] = tested on: cholesterol oxidase derived from Pseudomonas sp. ST-200 (FERM BP-6661); assay: Effect of metal ions and the like (additives) on enzyme activity; format: biochemical; settings: additive at 1 mM; activity without additive = 100; cholesterol substrate, 30° C., pH 7
Protocol: Effect of metal ions and the like on the activity of the enzyme obtained in Example 1 was studied. Enzyme activity was measured as described in Test Example 1 at 30° C. at pH 7 after adding various metal compounds, to a final concentration of […], to the reaction system.

[14] = head 0.03% Triton X-100 (0.3% in text)
[15] = 0.03% Triton X-100, 0 to 1 mM cholesterol
[16] = additive 1 mM, 30° C., cholesterol as substrate, activity without additive set to be 100

Oc1cccc2cccnc12 [8-hydroxyquinoline, reference compound]
Relative activity (%) [1]: 85%

c1ccccc1 [Benzene]
Relative activity, Pseudomonas sp. [2]: 1.3 | Effect of organic solvent on reaction velocity (in words) [3]: increased | Relative activity, ST-200 [3]: 3.0 | Reaction velocity in solvent compared to cholesterol oxidases of Nocardia erythropolis, Pseudomonas sp., Streptomyces sp., Brevibacterium sp. (in words) [3]: higher reaction velocity | Relative activity, Streptomyces sp. [4]: 0.9 | Relative activity, Brevibacterium sp. [5]: 0.5 | Relative activity, Nocardia erythropolis [6]: 1.5

[Ca+2].[Cl-].[Cl-] [Calcium chloride]
Relative activity (%) [1]: 106%

ClC(Cl)Cl [Chloroform]
Relative activity, Pseudomonas sp. [2]: 0.1 | Relative activity, ST-200 [3]: 0.2 | Relative activity, Streptomyces sp. [4]: 0.1 | Relative activity, Brevibacterium sp. [5]: <0.1 | Relative activity, Nocardia erythropolis [6]: 0.3

CC(C)CCC[C@@H](C)[C@H]1CC[C@H]2[C@@H]3CC=C4C[C@@H](O)CC[C@]4(C)[C@H]3CC[C@]12C [Cholesterol, cholest-5-en-3β-ol]
Action of the enzyme on the substrate (in words) [7]: strongly oxidized | Relative activity (%) [7]: 100% | Km ([8]; 0.03% Triton X-100): 4.04 µM | Vmax ([8]; 0.03% Triton X-100): 13.1 µmol/min/mg | Km [8, 14]: 52.2 µM | Vmax [8, 14]: 12.1 µmol/min/mg | Km [9, 15]: 16.3 µM | Vmax [9, 15]: 15.8 µmol/min/mg | Km [9, 14]: 160 µM | Vmax [9, 14]: 15.3 µmol/min/mg | Km [10, 15]: 63.3 µM | Vmax [10, 15]: 12.0 µmol/min/mg | Km [10, 14]: 925 µM | Vmax [10, 14]: 11.3 µmol/min/mg | Km [11, 15]: 5.14 µM | Vmax [11, 15]: 9.8 µmol/min/mg | Km [11, 14]: 44 µM | Vmax [11, 14]: 6.8 µmol/min/mg | Km [12, 15]: 9.41 µM | Vmax [12, 15]: 11.0 µmol/min/mg | Km [12, 14]: 76.1 µM | Vmax [12, 14]: 10.3 µmol/min/mg

O=S(=O)([O-])[O-].[Cu+2] [Copper sulfate]
Relative activity (%) [1, 16]: 105%

C1CCCCCCC1 [Cyclooctane]
Relative activity, Pseudomonas sp. [2]: 0.8 | Effect of organic solvent on reaction velocity (in words) [3]: increased | Relative activity, ST-200 [3]: 1.4 | Reaction velocity in solvent compared to cholesterol oxidases of Nocardia erythropolis, Pseudomonas sp., Streptomyces sp., Brevibacterium sp. (in words) [3]: higher reaction velocity | Relative activity, Streptomyces sp. [4]: 0.4 | Relative activity, Brevibacterium sp. [5]: 0.2 | Relative activity, Nocardia erythropolis [6]: 1.1

C[C@]12CC[C@H](O)CC1=CC[C@@H]1[C@@H]2CC[C@]2(C)C(=O)CC[C@@H]12 [Dehyoepiandrosterone, 3β-Hydroxyandrost-5-en-17-one]
Relative activity (%) [7]: 16%

c1ccc(Cc2ccccc2)cc1 [Diphenylmethane]
Relative activity, Pseudomonas sp. [2]: 1.5 | Effect of organic solvent on reaction velocity (in words) [3]: increased | Relative activity, ST-200 [3]: 3.1 | Reaction velocity in solvent compared to cholesterol oxidases of Nocardia erythropolis, Pseudomonas sp., Streptomyces sp., Brevibacterium sp. (in words) [3]: higher reaction velocity | Relative activity, Streptomyces sp. [4]: 1.0 | Relative activity, Brevibacterium sp. [5]: 0.8 | Relative activity, Nocardia erythropolis [6]: 1.6

O=C(O)CN(CCN(CC(=O)O)CC(=O)O)CC(=O)O [EDTA]
Relative activity [13]: 88%

C[C@]12CC[C@H](O)C[C@@H]1CC[C@@H]1[C@@H]2CC[C@]2(C)C(=O)CC[C@@H]12 [Epiandrosterone, 5α-androstan-3β-ol-17-one]
Relative activity (%) [7]: 10%

CC(C)CCC[C@@H](C)[C@H]1CC[C@H]2[C@@H]3CC=C4C[C@H](O)CC[C@]4(C)[C@H]3CC[C@]12C [Epicholesterol, Cholest-5-en-3α-ol]
Action of the enzyme on the substrate (in words) [7]: does not act on; also recorded: did not act on | Relative activity (%) [7]: 0%

CC(C)[C@@H](C)C=C[C@@H](C)[C@H]1CC[C@H]2C3=CC=C4C[C@@H](O)CC[C@]4(C)[C@H]3CC[C@]12C [Ergosterol, Ergosta-5,7,22-trien-3β-ol]
Relative activity (%) [7]: 20%

[Cl-].[Cl-].[Mg+2] [Magnesium chloride]
Relative activity (%) [1]: 102%

[Cl][Hg][Cl] [Mercury chloride]
Relative activity (%) [1, 16]: 0% | Inhibition of enzyme activity (in words) ([1]; cholesterol as substrate): inhibited; also recorded: strongly inhibited

[Cl][Ni][Cl] [Nickel chloride]
Relative activity (%) [1]: 90%

Cc1ccc(C)cc1 [Paraxylene]
Relative activity, Pseudomonas sp. [2]: 1.5 | Effect of organic solvent on reaction velocity (in words) [3]: increased | Relative activity, ST-200 [3]: 3.4 | Reaction velocity in solvent compared to cholesterol oxidases of Nocardia erythropolis, Pseudomonas sp., Streptomyces sp., Brevibacterium sp. (in words) [3]: higher reaction velocity | Relative activity, Streptomyces sp. [4]: 1.1 | Relative activity, Brevibacterium sp. [5]: 0.7 | Relative activity, Nocardia erythropolis [6]: 1.6

CC(=O)[C@H]1CC[C@H]2[C@@H]3CC=C4C[C@@H](O)CC[C@]4(C)[C@H]3CC[C@]12C [Pregnenolone, 3β-Hydroxypregn-5-en-20-one]
Relative activity (%) [7]: 32%

CCCc1ccccc1 [Propylbenzene]
Relative activity, Pseudomonas sp. [2]: 1.3 | Effect of organic solvent on reaction velocity (in words) [3]: increased | Relative activity, ST-200 [3]: 3.2 | Reaction velocity in solvent compared to cholesterol oxidases of Nocardia erythropolis, Pseudomonas sp., Streptomyces sp., Brevibacterium sp. (in words) [3]: higher reaction velocity | Relative activity, Streptomyces sp. [4]: 1.1 | Relative activity, Brevibacterium sp. [5]: 0.8 | Relative activity, Nocardia erythropolis [6]: 1.6

O=[N+]([O-])[O-].[Ag+] [Silver nitrate]
Relative activity (%) [1, 16]: 2% | Inhibition of enzyme activity (in words) ([1]; cholesterol as substrate): inhibited; also recorded: strongly inhibited

Cc1ccccc1 [Toluene]
Relative activity, Pseudomonas sp. [2]: 1.4 | Effect of organic solvent on reaction velocity (in words) [3]: increased | Relative activity, ST-200 [3]: 3.5 | Reaction velocity in solvent compared to cholesterol oxidases of Nocardia erythropolis, Pseudomonas sp., Streptomyces sp., Brevibacterium sp. (in words) [3]: higher reaction velocity | Relative activity, Streptomyces sp. [4]: 1.2 | Relative activity, Brevibacterium sp. [5]: 0.5 | Relative activity, Nocardia erythropolis [6]: 1.7

[Cl-].[Cl-].[Zn+2] [Zinc chloride]
Relative activity (%) [1]: 92%

c1cnc2c(c1)ccc1cccnc12 [o-phenanthroline]
Relative activity [13]: 92%

c1ccc(-c2ccccn2)nc1 [α,α-dipyridyl, reference compound]
Relative activity (%) [1]: 98%

c1ccc(-c2ccccn2)nc1 [α,α-dipyridyl]
Relative activity [13]: 98%

CC(C)CCC[C@@H](C)[C@H]1CC[C@H]2[C@@H]3CC[C@H]4C[C@@H](O)CC[C@]4(C)[C@H]3CC[C@]12C [β-cholestanol]
Action of the enzyme on the substrate (in words) [7]: strongly oxidized | Relative activity (%) [7]: 69%

CC[C@H](CC[C@@H](C)[C@H]1CC[C@H]2[C@@H]3CC=C4C[C@@H](O)CC[C@]4(C)[C@H]3CC[C@]12C)C(C)C [β-sitosterol, sitost-5-en-3β-ol]
Action of the enzyme on the substrate (in words) [7]: strongly oxidized | Relative activity (%) [7]: 84%

Iron sulfate
Relative activity (%) [1, 16]: 94%

Manganese chloride
Relative activity (%) [1, 16]: 92%

— patent US20030153051A1, “Cholesterol oxidase” (priority 1998, published 2003)
